From ChEMBL document CHEMBL1133293, “Synthesis of a water-soluble prodrug of entacapone” (Bioorg Med Chem Lett, 2000) come the findings set out here.

The nature of data set [1]: Half life period in rabbit liver homogenate. Format: ADME, tissue-based, Oryctolagus cuniculus.
Data set [2] is described as follows: Solubility at pH 1.2. As to conditions: buffer. It is filed as physicochemical.
The nature of data set [3]: Solubility at pH 7.4. It is filed as physicochemical. As to conditions: buffer.
A short description of data set [4]: Half life period t pH 7.4 at 37 degree Centigrade. Format: ADME.

Values after ≈ are worked out from the molar mass of the structure shown.

On to `CCN(CC)C(=O)/C(C#N)=C/c1cc(O)c(O)c([N+](=O)[O-])c1` [ENTACAPONE], for which the half-life in data set [1] was found to be 58 min. The solubility in data set [2] amounted to 0.017 mg/mL (≈ 55.7 µM); in data set [3], 1.75 mg/mL (≈ 5730 µM).
As to `CCN(CC)C(=O)C(C#N)=Cc1cc(O)c(O)c([N+](=O)[O-])c1`, in data set [1], the half-life came to 58 min.
As for `CCN(CC)C(=O)/C(C#N)=C/c1cc(OP(=O)([O-])[O-])c([O-])c([N+](=O)[O-])c1.[Na+].[Na+].[Na+]`, the solubility in data set [2] and in data set [3] was 30 mg/mL throughout. Also, the half-life in data set [4] was 92.8 days.
